Measurements published in patent US11104660B2, “PDE4D inhibitors” (TETRA DISCOVERY PARTNERS, INC., priority 2019, dated 2021).
Like-named read-outs stand apart in the source and are kept apart here.

Tests used:
[1] = Plasma free fraction of Compound A (spiked -10 min plasma samples); format: in vitro ADME, cynomolgus non-human primates (Macaca fascicularis); conditions: cynomolgus monkey, read-out: fp (%) Plasma free fraction
Description: (§1) A dynamic 90 (Subject 1) or 120 (Subject 2) minute PET scan acquisition was initiated at the start of Compound A injection, administered over 3 minutes via an infusion pump targeting an injected activity of 5 mCi. Relative to time of Compound A injection, arterial blood samples were collected in K2EDTA at −10, 0.75, 1.5, 2.25, 3, 4, 5, 10, 15, 30, 45, 60, 90 and 120 min. For each sample, an aliquot (200 uL) was gamma counted for radioactivity concentration determination, then processed to plasma. For −10, 5, 15, 30, 60, 90, 120 min plasma samples, radio HPLC was performed for determination of parent fraction of Compound A, and −10 min samples spiked with Compound A were used for stability analysis and determination of plasma free fraction. Aliquots (100 uL) of plasma samples collected at −10, 5, 15, 30, 60, 90, 120 min were frozen for subsequent determination of drug concentration levels.

[2] = tested on: PDE4D; assay: PET imaging of 11C-labeled Compound A in non-human primate brain (VT, uptake); format: in vivo, cynomolgus non-human primates (Macaca fascicularis); conditions: for VT (volume of distribution): 90 min
Description: The regional distribution and pharmacokinetics of ^11C-labeled compounds as described herein were evaluated on non-human primates via PET imaging.
(§2) Two male non-naïve cynomolgus non-human primates (Macaca fascicularis) (“Subject 1” and “Subject 2”) were utilized in this study (7.0 and 5.5 kg). Subjects had previously undergone surgery for placement of arterial access ports for blood collection from the iliac artery. Each subject underwent a brain MR in a Philips 1.5T Intera scanner using a 3D T1 FFE sequence for subsequent registration with PET and application of a cynomolgus brain region of interest atlas for determination of regional time-activity curves. PET scans were conducted in each subject under baseline condition (i.e., Compound A, only) and 15 minutes after a 10 minute infusion of Compound B at 3 mg/kg (i.e. blocking condition). Compound B is a known PDE4D ligand, alternatively referred to as BPN14770.
PET scans were conducted with a Siemens Focus 220 microPET scanner. Subjects were anesthetized with ketamine 10 mg/kg IM approximately 45 minutes prior to Compound A injection. Atropine sulfate 0.05 mg/kg IM was administered approximately 35 minutes prior to Compound A injection. Subjects were intubated and maintained on isoflurane (2-2.5%) and oxygen (2 L/min). Indwelling catheters were placed in the saphenous veins for drug infusion, tracer injection and fluids (LRS 10 mL/kg/hr IV). Subjects were transported to the PET imaging bed, positioned, and monitored for body temperature, heart rate, expired CO2, respiration rate, and pulse O2.
as §1
At the conclusion of PET scan acquisition, an x-ray CT scan by an 8 slice NeuroLogica CereTom OTOscan of each Subject was collected of the head at 120 kVp, 4 mAs, slice thickness 0.625 mm and processed using filtered back projection. The CT scan was used for co-registration to PET for attenuation and scatter correction of the reconstructed PET scan. Listmode PET data were binned into 6×0.5 min, 3×1 min, 2×2 min and 22 ×5 min frames. Binned sinogram data were reconstructed by filtered backprojection.
Reconstructed PET images were analyzed using PMOD software. PET scans were transformed into MR template space via rigid PET-to-MR and affine+nonlinear MR-to-template registrations. Time-activity curves were generated from regions of interest (ROIs) defined on the MR template including the anterior cingulate, cerebellum, dorsolateral prefrontal cortex, entorhinal cortex, occipital cortex, striatum and thalamus. Peak uptake in the brain was between about 3.2% and 5.6% of the injected dose.
(§3) Volume of distribution (VT) (mL/cm^3) of Compound A was estimated with the 2-tissue compartment (2TC) model and Logan graphical analysis (LGA, t*=30), for baseline and blocking scans, using 90 min of data. VT at baseline and blocking in ROIs were used to compute occupancy of Compound B via the occupancy (Lassen) plot. Time stability of VT estimated from 2TC and LGA models were assessed for both animals from 90 min or 120 minutes of data for baseline and blocking scans.

[3] = tested on: PDE4D; assay: Occupancy of Compound B by PET with Compound A (Lassen plot); format: in vivo, cynomolgus non-human primates (Macaca fascicularis); conditions: Compound B 3 mg/kg infusion
From the text: as §2, §3

SMILES: [2H]C([2H])(c1cn[nH]c1)c1ccc(O[11CH3])c(-c2cccc([N+](=O)[O-])c2)n1 [Compound A]
- fraction unbound ([1]; Subject 1, baseline): 0.059
- fraction unbound ([1]; Subject 1, blocking (Compound B 3 mg/kg)): 0.059
- fraction unbound ([1]; Subject 2, baseline): 0.067
- fraction unbound ([1]; Subject 2, blocking (Compound B 3 mg/kg)): 0.047
- VT (volume of distribution) ([2]; Anterior Cingulate, Subject 1, 2TC, baseline): 15.8 mL/cm^3
- VT (volume of distribution) ([2]; Anterior Cingulate, Subject 1, 2TC, blocking (Compound B 3 mg/kg)): 8.8 mL/cm^3
- VT (volume of distribution) ([2]; Anterior Cingulate, Subject 1, LGA, baseline): 13.8 mL/cm^3
- VT (volume of distribution) ([2]; Anterior Cingulate, Subject 1, LGA, blocking (Compound B 3 mg/kg)): 8.9 mL/cm^3
- VT (volume of distribution) ([2]; Anterior Cingulate, Subject 2, 2TC, baseline): 13.7 mL/cm^3
- VT (volume of distribution) ([2]; Anterior Cingulate, Subject 2, 2TC, blocking (Compound B 3 mg/kg)): 10.6 mL/cm^3
- VT (volume of distribution) ([2]; Anterior Cingulate, Subject 2, LGA, baseline): 14.6 mL/cm^3
- VT (volume of distribution) ([2]; Anterior Cingulate, Subject 2, LGA, blocking (Compound B 3 mg/kg)): 10.4 mL/cm^3
- VT (volume of distribution) ([2]; Cerebellum, Subject 1, 2TC, baseline): 11.5 mL/cm^3
- VT (volume of distribution) ([2]; Cerebellum, Subject 1, 2TC, blocking (Compound B 3 mg/kg)): 7.6 mL/cm^3
- VT (volume of distribution) ([2]; Cerebellum, Subject 1, LGA, baseline): 10.2 mL/cm^3
- VT (volume of distribution) ([2]; Cerebellum, Subject 1, LGA, blocking (Compound B 3 mg/kg)): 7.7 mL/cm^3
- VT (volume of distribution) ([2]; Cerebellum, Subject 2, 2TC, baseline): 8.6 mL/cm^3
- VT (volume of distribution) ([2]; Cerebellum, Subject 2, 2TC, blocking (Compound B 3 mg/kg)): 9.6 mL/cm^3
- VT (volume of distribution) ([2]; Cerebellum, Subject 2, LGA, baseline): 9.2 mL/cm^3
- VT (volume of distribution) ([2]; Cerebellum, Subject 2, LGA, blocking (Compound B 3 mg/kg)): 9.7 mL/cm^3
- VT (volume of distribution) ([2]; Dorsolateral Frontal Cortex, Subject 1, 2TC, baseline): 26.2 mL/cm^3
- VT (volume of distribution) ([2]; Dorsolateral Frontal Cortex, Subject 1, 2TC, blocking (Compound B 3 mg/kg)): 10.2 mL/cm^3
- VT (volume of distribution) ([2]; Dorsolateral Frontal Cortex, Subject 1, LGA, baseline): 22.9 mL/cm^3
- VT (volume of distribution) ([2]; Dorsolateral Frontal Cortex, Subject 1, LGA, blocking (Compound B 3 mg/kg)): 10.1 mL/cm^3
- VT (volume of distribution) ([2]; Dorsolateral Frontal Cortex, Subject 2, 2TC, baseline): 15.2 mL/cm^3
- VT (volume of distribution) ([2]; Dorsolateral Frontal Cortex, Subject 2, 2TC, blocking (Compound B 3 mg/kg)): 12.3 mL/cm^3
- VT (volume of distribution) ([2]; Dorsolateral Frontal Cortex, Subject 2, LGA, baseline): 15.5 mL/cm^3
- VT (volume of distribution) ([2]; Dorsolateral Frontal Cortex, Subject 2, LGA, blocking (Compound B 3 mg/kg)): 10.6 mL/cm^3
- VT (volume of distribution) ([2]; Enthorinal Cortex, Subject 1, 2TC, baseline): 14.6 mL/cm^3
- VT (volume of distribution) ([2]; Enthorinal Cortex, Subject 1, 2TC, blocking (Compound B 3 mg/kg)): 8.1 mL/cm^3
- VT (volume of distribution) ([2]; Enthorinal Cortex, Subject 1, LGA, baseline): 11.7 mL/cm^3
- VT (volume of distribution) ([2]; Enthorinal Cortex, Subject 1, LGA, blocking (Compound B 3 mg/kg)): 7.4 mL/cm^3
- VT (volume of distribution) ([2]; Enthorinal Cortex, Subject 2, 2TC, baseline): 10.8 mL/cm^3
- VT (volume of distribution) ([2]; Enthorinal Cortex, Subject 2, 2TC, blocking (Compound B 3 mg/kg)): 10.1 mL/cm^3
- VT (volume of distribution) ([2]; Enthorinal Cortex, Subject 2, LGA, baseline): 10.5 mL/cm^3
- VT (volume of distribution) ([2]; Enthorinal Cortex, Subject 2, LGA, blocking (Compound B 3 mg/kg)): 7.8 mL/cm^3
- VT (volume of distribution) ([2]; Hippocampus, Subject 1, 2TC, baseline): 30.3 mL/cm^3
- VT (volume of distribution) ([2]; Hippocampus, Subject 1, 2TC, blocking (Compound B 3 mg/kg)): 7.4 mL/cm^3
- VT (volume of distribution) ([2]; Hippocampus, Subject 1, LGA, baseline): 19.4 mL/cm^3
- VT (volume of distribution) ([2]; Hippocampus, Subject 1, LGA, blocking (Compound B 3 mg/kg)): 7.5 mL/cm^3
- VT (volume of distribution) ([2]; Hippocampus, Subject 2, 2TC, baseline): 19.8 mL/cm^3
- VT (volume of distribution) ([2]; Hippocampus, Subject 2, 2TC, blocking (Compound B 3 mg/kg)): 11.1 mL/cm^3
- VT (volume of distribution) ([2]; Hippocampus, Subject 2, LGA, baseline): 17.4 mL/cm^3
- VT (volume of distribution) ([2]; Hippocampus, Subject 2, LGA, blocking (Compound B 3 mg/kg)): 11.0 mL/cm^3
- VT (volume of distribution) ([2]; Occipital Cortex, Subject 1, 2TC, baseline): 17.8 mL/cm^3
- VT (volume of distribution) ([2]; Occipital Cortex, Subject 1, 2TC, blocking (Compound B 3 mg/kg)): 8.4 mL/cm^3
- VT (volume of distribution) ([2]; Occipital Cortex, Subject 1, LGA, baseline): 15.1 mL/cm^3
- VT (volume of distribution) ([2]; Occipital Cortex, Subject 1, LGA, blocking (Compound B 3 mg/kg)): 8.0 mL/cm^3
- VT (volume of distribution) ([2]; Occipital Cortex, Subject 2, 2TC, baseline): 12.9 mL/cm^3
- VT (volume of distribution) ([2]; Occipital Cortex, Subject 2, 2TC, blocking (Compound B 3 mg/kg)): 10.6 mL/cm^3
- VT (volume of distribution) ([2]; Occipital Cortex, Subject 2, LGA, baseline): 13.1 mL/cm^3
- VT (volume of distribution) ([2]; Occipital Cortex, Subject 2, LGA, blocking (Compound B 3 mg/kg)): 10.0 mL/cm^3
- Brain entry ([2]; PET image analysis): readily entered the brain
- Regional uptake ([2]; PET image analysis): consistent with the known distribution of Compound B
- VT (volume of distribution) ([2]; Striatum, Subject 1, 2TC, baseline): 14.9 mL/cm^3
- VT (volume of distribution) ([2]; Striatum, Subject 1, 2TC, blocking (Compound B 3 mg/kg)): 9.0 mL/cm^3
- VT (volume of distribution) ([2]; Striatum, Subject 1, LGA, baseline): 13.9 mL/cm^3
- VT (volume of distribution) ([2]; Striatum, Subject 1, LGA, blocking (Compound B 3 mg/kg)): 9.2 mL/cm^3
- VT (volume of distribution) ([2]; Striatum, Subject 2, 2TC, baseline): 13.2 mL/cm^3
- VT (volume of distribution) ([2]; Striatum, Subject 2, 2TC, blocking (Compound B 3 mg/kg)): 11.5 mL/cm^3
- VT (volume of distribution) ([2]; Striatum, Subject 2, LGA, baseline): 13.4 mL/cm^3
- VT (volume of distribution) ([2]; Striatum, Subject 2, LGA, blocking (Compound B 3 mg/kg)): 11.2 mL/cm^3
- VT (volume of distribution) ([2]; Thalamus, Subject 1, 2TC, baseline): 17.6 mL/cm^3
- VT (volume of distribution) ([2]; Thalamus, Subject 1, 2TC, blocking (Compound B 3 mg/kg)): 8.8 mL/cm^3
- VT (volume of distribution) ([2]; Thalamus, Subject 1, LGA, baseline): 15.7 mL/cm^3
- VT (volume of distribution) ([2]; Thalamus, Subject 1, LGA, blocking (Compound B 3 mg/kg)): 8.9 mL/cm^3
- VT (volume of distribution) ([2]; Thalamus, Subject 2, 2TC, baseline): 11.6 mL/cm^3
- VT (volume of distribution) ([2]; Thalamus, Subject 2, 2TC, blocking (Compound B 3 mg/kg)): 9.9 mL/cm^3
- VT (volume of distribution) ([2]; Thalamus, Subject 2, LGA, baseline): 12.1 mL/cm^3
- VT (volume of distribution) ([2]; Thalamus, Subject 2, LGA, blocking (Compound B 3 mg/kg)): 9.8 mL/cm^3
- Change of Compound A in regions of high uptake on blockage of PDE4D ([2]; high dose of Compound B): substantial reduction

SMILES: NC(=O)Cc1ccc(Nc2cc(C(F)(F)F)nc(-c3cccc(Cl)c3)n2)cc1 [Compound B]
- Occupancy (%) ([3]; Subject 1, 2TC): 84%
- Occupancy (%) ([3]; Subject 1, LGA): 88%
- Occupancy (%) ([3]; Subject 2, 2TC): 82%
- Occupancy (%) ([3]; Subject 2, LGA): 73%
